Reference: ChEMBL document CHEMBL1156202, “The effect of the pyridyl nitrogen position in pyridylpiperazine sigma ligands” (Bioorg Med Chem Lett, 2010)

Assays:
[1] = Displacement of [3H]di-O-tolylguanidine from rat brain membrane sigma 2 receptor after 120 mins in the presence of (+)-pentazocin
Rattus norvegicus = organism: Rattus norvegicus; experiment: Selectivity ratio of Ki for rat brain membrane sigma 1receptor to Ki for rat brain membrane sigma 2 receptor
[2] = molecular target: Sigma non-opioid intracellular receptor 1 (Rattus norvegicus, UniProt Q9R0C9); experiment: Displacement of [3H](+)-pentazocine from rat brain membrane sigma 1receptor after 120 mins
Sequence of Sigma non-opioid intracellular receptor 1 (Q9R0C9 whole entry): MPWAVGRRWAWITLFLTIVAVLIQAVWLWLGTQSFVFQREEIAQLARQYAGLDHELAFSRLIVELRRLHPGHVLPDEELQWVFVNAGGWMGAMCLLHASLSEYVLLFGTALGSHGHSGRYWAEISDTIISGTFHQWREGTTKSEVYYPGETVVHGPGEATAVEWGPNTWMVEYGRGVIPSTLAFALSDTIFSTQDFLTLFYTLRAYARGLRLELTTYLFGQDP

Compound | Ki [1] [nM] | Ratio Ki (Rattus norvegicus) | Ki [2] [nM]
c1ccc(CCN2CCN(c3ccccn3)CC2)cc1 | 119 | 2.7 | 
c1ccc(CCN2CCN(c3ccncc3)CC2)cc1 | 69.7 | 0.6 | 41.8
c1ccc(CCCN2CCN(c3cccnc3)CC2)cc1 | 110 | 0.19 | 21.2
c1ccc(CCN2CCN(c3cccnc3)CC2)cc1 | 440 | 0.22 | 97.2
c1ccc(CCCN2CCN(c3ccncc3)CC2)cc1 | 84 | 0.41 | 34.2
c1ccc(CCCN2CCN(c3ccccn3)CC2)cc1 | 4.91 | 16.9 | 
